# According to PubChem BioAssay (NCI):
#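 Briefly, cells in 96-well plates were exposed to five compound concentrations for 48 h, and endpoints were estimated by linear interpolation. GI50: concentration for 50% inhibition of growth. TGI: total growth inhibition.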
# Experiments:
# Test in all cases: inhibition of tumour cell growth, NCI panel, 48 h
# 786-0 renal = test system: 786-0 renal
# A498 renal = test system: A498 renal
# A549 NSCLC = test system: A549 NSCLC
# ACHN renal = test system: ACHN renal
# BT-549 breast = test system: BT-549 breast
# CAKI-1 renal = test system: CAKI-1 renal
# CCRF-CEM leukemia = test system: CCRF-CEM leukemia
# COLO 205 colon = test system: COLO 205 colon
# DU-145 prostate = test system: DU-145 prostate
# EKVX NSCLC = test system: EKVX NSCLC
# HCC-2998 colon = test system: HCC-2998 colon
# HCT-116 colon = test system: HCT-116 colon
# HCT-15 colon = test system: HCT-15 colon
# HL-60(TB) leukemia = test system: HL-60(TB) leukemia
# HOP-62 NSCLC = test system: HOP-62 NSCLC
# HOP-92 NSCLC = test system: HOP-92 NSCLC
# HS 578T breast = test system: HS 578T breast
# HT29 colon = test system: HT29 colon
# IGROV1 ovarian = test system: IGROV1 ovarian
# K-562 leukemia = test system: K-562 leukemia
# KM12 colon = test system: KM12 colon
# LOX IMVI melanoma = test system: LOX IMVI melanoma
# M14 melanoma = test system: M14 melanoma
# MALME-3M melanoma = test system: MALME-3M melanoma
# MCF7 breast = test system: MCF7 breast
# MDA-MB-231 breast = test system: MDA-MB-231 breast
# MDA-MB-435 = test system: MDA-MB-435
# MOLT-4 leukemia = test system: MOLT-4 leukemia
# NCI-H226 lung = test system: NCI-H226 lung
# NCI-H23 lung = test system: NCI-H23 lung
# NCI-H460 lung = test system: NCI-H460 lung
# NCI-H522 lung = test system: NCI-H522 lung
# NCI/ADR-RES ovarian = test system: NCI/ADR-RES ovarian
# OVCAR-3 ovarian = test system: OVCAR-3 ovarian
# OVCAR-4 ovarian = test system: OVCAR-4 ovarian
# OVCAR-5 ovarian = test system: OVCAR-5 ovarian
# OVCAR-8 ovarian = test system: OVCAR-8 ovarian
# PC-3 prostate = test system: PC-3 prostate
# RPMI-8226 leukemia = test system: RPMI-8226 leukemia
# RXF 393 renal = test system: RXF 393 renal
# SF-268 CNS = test system: SF-268 CNS
# SF-295 CNS = test system: SF-295 CNS
# SF-539 CNS = test system: SF-539 CNS
# SK-MEL-2 melanoma = test system: SK-MEL-2 melanoma
# SK-MEL-28 melanoma = test system: SK-MEL-28 melanoma
# SK-MEL-5 melanoma = test system: SK-MEL-5 melanoma
# SK-OV-3 ovarian = test system: SK-OV-3 ovarian
# SN12C renal = test system: SN12C renal
# SNB-19 CNS = test system: SNB-19 CNS
# SNB-75 CNS = test system: SNB-75 CNS
# SR leukemia = test system: SR leukemia
# SW-620 colon = test system: SW-620 colon
# T-47D breast = test system: T-47D breast
# TK-10 renal = test system: TK-10 renal
# U251 CNS = test system: U251 CNS
# UACC-257 melanoma = test system: UACC-257 melanoma
# UACC-62 melanoma = test system: UACC-62 melanoma
# UO-31 renal = test system: UO-31 renal
structure (smiles),measurement,setting,value
C=C(C)[C@@H]1/C=C(/C(C)C)CC[C@@]2(C)OC2CC[C@H](C)CC1=O (stereo not given in full),GI50,786-0 renal,> 42.8 µM
same,TGI,786-0 renal,> 59.6 µM
same,GI50,A498 renal,31.6 µM
same,TGI,A498 renal,> 93.2 µM
same,GI50,A549 NSCLC,28.8 µM
same,TGI,A549 NSCLC,> 100 µM
same,GI50,ACHN renal,27.5 µM
same,TGI,ACHN renal,> 55 µM
same,GI50,BT-549 breast,38.8 µM
same,TGI,BT-549 breast,> 100 µM
same,GI50,CAKI-1 renal,24.1 µM
same,TGI,CAKI-1 renal,53.8 µM
same,GI50,CCRF-CEM leukemia,20.3 µM
same,TGI,CCRF-CEM leukemia,52.3 µM
same,GI50,COLO 205 colon,24.9 µM
same,TGI,COLO 205 colon,> 61 µM
same,GI50,DU-145 prostate,19.4 µM
same,TGI,DU-145 prostate,36 µM
same,GI50,EKVX NSCLC,52.1 µM
same,TGI,EKVX NSCLC,> 100 µM
same,GI50,HCC-2998 colon,> 44.4 µM
same,TGI,HCC-2998 colon,> 65.9 µM
same,GI50,HCT-116 colon,17.3 µM
same,TGI,HCT-116 colon,31.7 µM
same,GI50,HCT-15 colon,38.6 µM
same,TGI,HCT-15 colon,> 68.6 µM
same,GI50,HL-60(TB) leukemia,25 µM
same,TGI,HL-60(TB) leukemia,76.2 µM
same,GI50,HOP-62 NSCLC,30.3 µM
same,TGI,HOP-62 NSCLC,> 57.9 µM
same,GI50,HOP-92 NSCLC,26.3 µM
same,TGI,HOP-92 NSCLC,> 76.7 µM
same,GI50,HS 578T breast,46 µM
same,TGI,HS 578T breast,> 100 µM
same,GI50,HT29 colon,31.6 µM
same,TGI,HT29 colon,98.8 µM
same,GI50,IGROV1 ovarian,24.7 µM
same,TGI,IGROV1 ovarian,> 63.3 µM
same,GI50,K-562 leukemia,19.7 µM
same,TGI,K-562 leukemia,58.6 µM
same,GI50,KM12 colon,18.6 µM
same,TGI,KM12 colon,39.7 µM
same,GI50,LOX IMVI melanoma,22.4 µM
same,TGI,LOX IMVI melanoma,> 57.7 µM
same,GI50,M14 melanoma,30.8 µM
same,TGI,M14 melanoma,> 62.8 µM
same,GI50,MALME-3M melanoma,35.3 µM
same,TGI,MALME-3M melanoma,> 100 µM
same,GI50,MCF7 breast,27.7 µM
same,TGI,MCF7 breast,> 63.8 µM
same,GI50,MDA-MB-231 breast,19.3 µM
same,TGI,MDA-MB-231 breast,49.5 µM
same,GI50,MDA-MB-435,26.6 µM
same,TGI,MDA-MB-435,71.6 µM
same,GI50,MOLT-4 leukemia,16.3 µM
same,TGI,MOLT-4 leukemia,40.9 µM
same,GI50,NCI-H226 lung,> 38.8 µM
same,TGI,NCI-H226 lung,> 66.9 µM
same,GI50,NCI-H23 lung,21.2 µM
same,TGI,NCI-H23 lung,43.9 µM
same,GI50,NCI-H460 lung,18.7 µM
same,TGI,NCI-H460 lung,37.7 µM
same,GI50,NCI-H522 lung,31.2 µM
same,TGI,NCI-H522 lung,> 93.5 µM
same,GI50,NCI/ADR-RES ovarian,25.4 µM
same,TGI,NCI/ADR-RES ovarian,59.8 µM
same,GI50,OVCAR-3 ovarian,24.8 µM
same,TGI,OVCAR-3 ovarian,66.1 µM
same,GI50,OVCAR-4 ovarian,73.8 µM
same,TGI,OVCAR-4 ovarian,> 100 µM
same,GI50,OVCAR-5 ovarian,> 43.5 µM
same,TGI,OVCAR-5 ovarian,> 63.5 µM
same,GI50,OVCAR-8 ovarian,33.9 µM
same,TGI,OVCAR-8 ovarian,> 70.5 µM
same,GI50,PC-3 prostate,22.2 µM
same,TGI,PC-3 prostate,54.3 µM
same,GI50,RPMI-8226 leukemia,20.1 µM
same,TGI,RPMI-8226 leukemia,54.1 µM
same,GI50,RXF 393 renal,3.37 µM
same,TGI,RXF 393 renal,> 49.1 µM
same,GI50,SF-268 CNS,37.7 µM
same,TGI,SF-268 CNS,> 100 µM
same,GI50,SF-295 CNS,27.4 µM
same,TGI,SF-295 CNS,> 71.6 µM
same,GI50,SF-539 CNS,21.9 µM
same,TGI,SF-539 CNS,42.7 µM
same,GI50,SK-MEL-2 melanoma,52.1 µM
same,TGI,SK-MEL-2 melanoma,> 100 µM
same,GI50,SK-MEL-28 melanoma,59.3 µM
same,TGI,SK-MEL-28 melanoma,> 100 µM
same,GI50,SK-MEL-5 melanoma,19.4 µM
same,TGI,SK-MEL-5 melanoma,37.9 µM
same,GI50,SK-OV-3 ovarian,> 100 µM
same,TGI,SK-OV-3 ovarian,> 100 µM
same,GI50,SN12C renal,21 µM
same,TGI,SN12C renal,46 µM
same,GI50,SNB-19 CNS,60 µM
same,TGI,SNB-19 CNS,> 100 µM
same,GI50,SNB-75 CNS,> 100 µM
same,TGI,SNB-75 CNS,> 100 µM
same,GI50,SR leukemia,2.18 µM
same,GI50,SW-620 colon,25.4 µM
same,TGI,SW-620 colon,65.7 µM
same,GI50,T-47D breast,27.4 µM
same,TGI,T-47D breast,> 80.3 µM
same,GI50,TK-10 renal,27.6 µM
same,TGI,TK-10 renal,> 79.4 µM
same,GI50,U251 CNS,27.6 µM
same,TGI,U251 CNS,> 62.2 µM
same,GI50,UACC-257 melanoma,47.6 µM
same,TGI,UACC-257 melanoma,> 100 µM
same,GI50,UACC-62 melanoma,> 100 µM
same,TGI,UACC-62 melanoma,> 100 µM
same,GI50,UO-31 renal,23.2 µM
same,TGI,UO-31 renal,> 55.7 µM
